Source: paper PMC12281485, “High-Throughput Screening of Potent Drug-like Molecules Targeting 17β-HSD10 for the Treatment of Alzheimer’s Disease and Cancer” (ACS Chemical Biology, 2025)
Like-named read-outs stand apart in the source and are kept apart here.

Columns and labels:
17β-HSD10 [1] = target: T1, 17β-HSD10 (Homo sapiens, UniProt Q99714); test: 17β-HSD10 enzyme inhibition dose-response assay (acetoacetyl-CoA/NADH, absorbance 340 nm); assay type: biochemical
T1 construct: Recombinant 17β-HSD10 was expressed and purified as previously described in Aitken et al; made in house
T1 sequence (Q99714 1-261): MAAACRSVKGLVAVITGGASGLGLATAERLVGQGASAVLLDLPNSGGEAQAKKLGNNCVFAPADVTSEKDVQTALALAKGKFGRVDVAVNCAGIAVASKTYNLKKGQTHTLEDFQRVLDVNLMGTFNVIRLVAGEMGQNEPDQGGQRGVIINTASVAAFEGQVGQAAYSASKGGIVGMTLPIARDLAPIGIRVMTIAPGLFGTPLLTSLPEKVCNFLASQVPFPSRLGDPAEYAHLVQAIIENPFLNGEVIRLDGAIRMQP
Method: Recombinant 17β-HSD10 was expressed and purified as previously described in Aitken et al.
17β-HSD10 screening was carried out as described in Aitken et al. with the exception that experiments were also conducted in clear-bottom 1536-well low-volume microplates (Corning) with a final assay volume of 20 μL. For primary screening, an endpoint assay format was adopted, in which an Echo acoustic liquid dispenser (Labcyte) was used to transfer 20 nL of either DMSO control […] or test compounds (10 μM) to the assay plate. 10 μL of the 17β-HSD10 enzyme in an assay buffer (2.5 nM) was then added to the plates using the Preddator liquid handling robot (Redd and Whyte), and plates were incubated at RT for 15 min. 10 μL of the substrate mixture (100 μM acetoacetyl-CoA and 100 μM NADH) was added with the Preddator. To start the reaction, the plates were left to incubate for 35 min at RT before the absorbance at 340 nm was read on the EnVision plate reader (PerkinElmer). For the kinetic assay format and dose-response follow-up experiments, the same protocol was adopted, except that the absorbance at 340 nm was monitored constantly for 45 min from immediately after the reaction was started.

[2] = system: HEK293 cells overexpressing 17β-HSD10; test: LDH cytotoxicity assay; assay type: cell-based, human; details: 50 μM compound, 24 h, n = 3 ± SD
Method: Cell cytotoxicity was assessed via the measurement of LDH leakage into the culture medium using a commercially available kit from Pierce (Thermo Scientific cat no. 88953). This was carried out in accordance with the kit guidelines, with the activity of LDH being calculated from the change in absorbance at […]. Human embryonic kidney (HEK293) cells overexpressing 17β-HSD10 were cultured in phenol-red free media (10% FBS, 1 mM sodium pyruvate, 100 units penicillin, 0.1 mg mL^–1 streptomycin, and 2 mM L-glutamine) and seeded at a density of 10,000 cells per well (100 μL, 96-well plates). […] Treated cells were then incubated at 37 °C and CO2 (5%) for 24 h before the LDH assay was performed as per the manufacturer’s instructions. Spontaneous control (water) and maximum control (lysis buffer) were used in accordance with the kit guide. Absorbance was measured at 490 and 680 nm using the SpectraMaxM2e spectrophotometer. The measured LDH activity was used to calculate %cytotoxicity using the following equation (eq ): %cytotoxicity=(compoundtreatedLDHactivity−spontaneousLDHactivity)/(maximumLDHactivity−spontaneousLDHactivity)×100 1

[3] = Alamar Blue cell viability assay; assay type: cell-based, human; details: human, HEK293 cells overexpressing 17β-HSD10, 50 μM compound, n = 3 ± SD, read-out: Alamar Blue % viability (50 μM dose)
Method: Cell viability was assessed via fluorescence change using the commercially available Alamar Blue from ThermoFisher. HEK293 cells overexpressing 17β-HSD10 were cultured in phenol-red free media (10% FBS, 1 mM sodium pyruvate, 100 units penicillin, 0.1 mg mL^–1 streptomycin, and 2 mM L-glutamine) and seeded at a density of 10,000 cells per well (100 μL, 96-well plates). […] Treated cells were then incubated at 37 °C and CO2 (5%) for 24 h before the assay was performed as per the manufacturer’s instructions. Fluorescence was measured at 530 nm excitation and 590 nm emission using the SpectraMaxM2e spectrophotometer.

17β-HSD10 [4] = target: T1, 17β-HSD10; test: (−)-CHANA fluorescence assay of cellular 17β-HSD10 activity; assay type: cell-based; details: read-out: cellular 17β-HSD10 activity mean pEC50 (converted)
Method: (−)–CHANA ((−)-cyclohexenyl amino naphthalene alcohol) is a fluorogenic probe that can be used to detect 17β-HSD10 activity in living cells. HEK293 17β-HSD10 cells were seeded at a density of 10,000 cells per well (100 μL, 96-well black plates) in phenol-red free media (10% FBS, 1 mM sodium pyruvate, 100 units penicillin, 0.1 mg mL^–1 streptomycin, and 2 mM L-glutamine). […] The fluorogenic probe (−)–CHANA was then added to each well to give a final assay concentration of 20 μM. Fluorescence was immediately measured using the FLUOstar Optima microplate reader (excitation = 380 nm, emission = 520 nm, orbital averaging = 3 mm), and the initial reaction was monitored for 3–4 h. EC50 was calculated from the control-subtracted triplicates using nonlinear regression (four parameters) of GraphPad Prism 5 software. The Final EC50 and SEM values were obtained as a mean of at least three independent measurements.

[5] = Mouse hepatocyte metabolic stability; assay type: in vitro ADME; set-up: k (elimination constant): unit not given here; details: mouse hepatocytes
Method: Hepatocyte isolation, hepatocyte incubations for metabolic stability, plasma protein binding (PPB) experiments, and LC/MS sample analysis were carried out as previously described in Brandon et al. and MacLeod et al.
XLfit (IDBS, UK) was used to calculate the exponential decay and the rate constant (k) from the ratio of the peak area of the test compound to the internal standard at each time point. […] Verapamil, 7-ethoxycoumarin, 7-hydroxycoumarin, and phthalazine were used as positive controls to confirm acceptable assay performance. […] Values were transferred to RStudio v1.3.1093 (Posit, Boston, MA, USA) for generation of scatter plots and heatmaps using the ggplot2 package (Wickham 2016).

[6] = Table 2, chemically modified cluster hit compounds, read-out: 17β-HSD10 pIC50 (converted)
[7] = Table 4, 17β-HSD10 overexpressing HEK293 cells, CHANA fluorescence assay
[8] = Table 3, chemically modified singleton hit compound series, read-out: 17β-HSD10 pIC50 (converted)

| SMILES | IC50 (17β-HSD10 [1]; [6]) | LDH % toxicity (50 μM dose) [2] | viability at 24 h, 50 μM [3] | EC50 (17β-HSD10 [4]; [7]) | IC50 (17β-HSD10 [1]; [8]) | also measured |
| --- | --- | --- | --- | --- | --- | --- |
| Cc1ccc(C(=O)N(CC(C)C)c2cccc(N(C)Cc3cnc[nH]3)c2)cc1 [ESC1002032] | 251 nM |  |  |  |  |  |
| COc1ccc(C(=O)N(CC(C)C)c2cccc(N(C)Cc3cnc[nH]3)c2)cc1 [ESC1002182] | 331 nM | 4.73 ± 0.01% | 85.4 ± 3.61% | 1670 nM |  |  |
| Cc1ccsc1C(=O)N1CCC[C@H]1c1ccccc1-c1cccnc1 [ESC1002090] |  |  |  |  | 1150 nM |  |
| COc1cccc(-c2ccccc2[C@H]2CCCN2C(=O)c2ccccc2C)c1 [ESC1002434] |  |  |  |  |  | 17β-HSD10 inhibitory activity (in words) (17β-HSD10 [1]): not tolerated |
| O=C(c1sccc1Cl)N1CCCC1c1ccccc1-c1ccc(F)c(O)c1 (centres unmarked) [ESC1002775] |  | 2.54 ± 0.004% | 81.53 ± 0.56% | 449 nM | 49 nM |  |
| COc1cccc(-c2ccccc2C2CCCN2C(=O)c2sccc2Cl)c1 (racemic) [ESC1002432] |  | 4.24 ± 0.02% | 80.61 ± 0.78% |  |  |  |
| COc1cccc(-c2ccccc2C2CCCN2C(=O)c2sccc2C)c1 (centres unmarked) [ESC1002338] |  | 4.64 ± 0.01% | 83 ± 1.25% | 1150 nM |  | IC50 (17β-HSD10 [1]; enzyme screening assay, read-out: IC50): 191 nM |
| Cc1nc[nH]c1CN(C)c1cccc(N(CC(C)C)C(=O)c2ccccc2F)c1 [ESC1002204] | 398 nM | 5.05 ± 0.01% | 96.7 ± 3.61% | 1360 nM |  | IC50 (17β-HSD10 [1]; Table 5, read-out: mean 17β-HSD10 pIC50 (converted)): 398 nM; EC50 (17β-HSD10 [4]; Table 5, HEK293 17β-HSD10 cells, CHANA assay): 1360 nM; k (elimination constant) [5]: 0.11; Heps category ([5]; metabolism category): high; Cl (clearance) ([5]; limits of quantitation 0.5 and 50): >50 mL/min/g liver; half-life ([5]; read-out: T1/2 (half-life)): 6.2 min |
| COc1ccc(C(=O)N(CC(C)C)c2cccc(N(C)Cc3c[nH]cn3)c2)c(F)c1 [ESC1002576] | 245 nM | 5.19 ± 0.01% | 79.1 ± 0.99% | 599 nM |  |  |
| O=C(c1sccc1Cl)N1CCCC1c1ccccc1-c1cc(O)cc(F)c1 (racemic) [ESC1002776] |  | 20.00 ± 0.11% | 65.6 ± 1.67% | 228 nM | 40.7 nM |  |
| O=C(c1ccccc1F)N1CCCc2ccc(NCc3cnc[nH]3)cc21 [ESC1002081] |  |  |  |  |  | 17β-HSD10 inhibitory activity (in words) (17β-HSD10 [1]): potency was abolished |
| Cc1ccsc1C(=O)N1CCC[C@H]1c1ccccc1-c1cnn(C)c1 [ESC1002424] |  |  |  |  | 933 nM | LipE (17β-HSD10 [1]): 2.1 |
| O=C(c1sccc1Cl)N1CCCC1c1ccccc1-c1cc(O)cc(F)c1 (centres unmarked) [ESC1002801] |  | 5.50 ± 0.01% | 82.55 ± 0.62% | 50 nM | 51.3 nM |  |
| CC(C)CN(C(=O)c1ccc(Cl)cc1F)c1cccc(N(C)Cc2cnc[nH]2)c1 [ESC1002042] | 316 nM |  |  |  |  | LipE (17β-HSD10 [1]; Table 1, lipophilic efficiency): 1.46 |
